Target: MDR1A (P-glycoprotein, ABCB1) (Mus musculus, UniProt P21447)
Experiment: Activity of mouse MDR1A expressed in pig LLC-PK1 cells assessed as efflux ratio of permeability from basolateral to apical side to apical to basolateral side at 1 uM after 2 hrs
Format: ADME, cell-based

Sequence of MDR1A (P-glycoprotein, ABCB1) (P21447 whole entry): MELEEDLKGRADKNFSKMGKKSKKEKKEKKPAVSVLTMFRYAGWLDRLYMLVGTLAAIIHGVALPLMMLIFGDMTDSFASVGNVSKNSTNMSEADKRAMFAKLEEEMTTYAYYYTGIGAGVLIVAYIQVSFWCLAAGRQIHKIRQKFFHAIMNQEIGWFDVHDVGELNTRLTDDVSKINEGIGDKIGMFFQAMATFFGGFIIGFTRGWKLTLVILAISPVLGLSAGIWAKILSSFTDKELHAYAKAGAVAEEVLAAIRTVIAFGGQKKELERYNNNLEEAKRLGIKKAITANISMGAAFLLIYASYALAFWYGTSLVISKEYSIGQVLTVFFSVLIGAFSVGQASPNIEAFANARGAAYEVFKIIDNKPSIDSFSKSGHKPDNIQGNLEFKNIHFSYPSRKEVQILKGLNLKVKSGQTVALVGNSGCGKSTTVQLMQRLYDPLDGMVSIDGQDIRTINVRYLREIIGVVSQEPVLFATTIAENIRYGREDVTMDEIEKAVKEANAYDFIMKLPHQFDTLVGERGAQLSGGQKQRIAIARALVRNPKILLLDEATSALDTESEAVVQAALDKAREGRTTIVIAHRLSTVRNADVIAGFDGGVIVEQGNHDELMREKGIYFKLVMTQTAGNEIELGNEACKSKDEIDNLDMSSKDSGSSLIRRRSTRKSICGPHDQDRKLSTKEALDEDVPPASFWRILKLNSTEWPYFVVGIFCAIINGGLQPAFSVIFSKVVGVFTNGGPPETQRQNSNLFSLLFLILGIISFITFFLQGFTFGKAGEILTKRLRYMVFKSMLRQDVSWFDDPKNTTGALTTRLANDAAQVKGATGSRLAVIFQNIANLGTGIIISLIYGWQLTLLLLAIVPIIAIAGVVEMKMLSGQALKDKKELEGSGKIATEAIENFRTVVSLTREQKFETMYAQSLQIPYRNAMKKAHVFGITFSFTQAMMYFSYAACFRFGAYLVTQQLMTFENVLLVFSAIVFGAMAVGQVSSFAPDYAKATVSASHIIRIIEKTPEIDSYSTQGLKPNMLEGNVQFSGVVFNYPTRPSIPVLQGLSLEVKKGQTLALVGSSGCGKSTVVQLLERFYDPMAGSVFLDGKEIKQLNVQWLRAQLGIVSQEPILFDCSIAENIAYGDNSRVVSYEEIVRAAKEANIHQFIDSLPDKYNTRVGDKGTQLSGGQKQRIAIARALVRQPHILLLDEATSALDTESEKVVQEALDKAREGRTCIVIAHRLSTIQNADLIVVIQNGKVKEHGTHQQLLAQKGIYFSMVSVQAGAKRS

CN(C)C(=O)C(CCN1CCC(O)(c2ccc(Cl)cc2)CC1)(c1ccccc1)c1ccccc1.Cl [LOPERAMIDE HYDROCHLORIDE]
efflux ratio at 2 h, 1 µM: 9

— ChEMBL document CHEMBL3525917, “Species difference in the mechanism of nonlinear pharmacokinetics of E2074, a novel sodium channel inhibitor, in rats, dogs, and monkeys” (Drug Metab Dispos, 2013)
